We go through 2 molecules from US4447608A, “Anti-cancer quinazoline derivatives” (priority 1979, dated 1984).

“Also recorded” adds a separate entry of the source. Read-outs that look alike come from different tables or passages of the source.

One data set concerns L1210 tumour. As to the kind of experiment: Treatment of L1210 ascitic tumour-bearing mice, survival. It is filed as in vivo, mice (female C57B1×DBA2 F1 hybrid). The following applies: for long term survivors (>120 days): FIG. 3. The protocol:
(§1) The L1210 tumour was carried routinely in DBA2 mice. For experiments 5×10^4 cells were implanted i.p. into female C57B1×DBA2 F1 hybrid mice 3 days prior to treatment, giving an established tumour of about 2×10^6 cells at the time of treatment.
(Animals were injected with 20 mM NaHCO3 buffer 0.4 ml daily×5 days.
As the injection solutions could only be neutralised to pH 8.5 while preserving solubility, the appropriate controls were injected with bicarbonate at pH 8.5. […] For comparative purposes further groups of animals were treated with various doses of methotrexate, given on the same schedule.

The conditions of data set [1]: majority of cell types; cited from earlier work.
In another data set the test system is L1210:R71 cells. Description: Growth inhibition of methotrexate-resistant L1210:R71 cells in suspension culture, 48 h count. The following applies: relative to L1210. It is filed as cell-based, mouse. The protocol: The compounds of Example 2 were evaluated in vitro as inhibitors as TS and cell growth and in vivo against the L1210 tumour. Since methotrexate (MTX) resistance is an important problem in cancer therapy, the compounds of the present invention were also investigated with this in mind.
(§2) L1210 and L1210:R71 cells were grown in continuous suspension culture in RPMI 1640 medium containing 10% horse serum (Flow Laboratories, Irvine, Scotland; UK). Cells were diluted to 10^5 /ml and additions (diluted in medium and sterilised in Millipore filtration) made prior to starting each incubation. Cell counts were performed after 24 and 48 hours using an improved Neubauer haemocytometer.

For data set [2], the system named is transport of tritiated folic acid into L1210 cells. As to the kind of experiment: Inhibition of transport of tritiated folic acid into L1210 cells. It is filed as cell-based, mouse. The protocol: (§3) The compounds of Example 2 were evaluated in vitro as inhibitors as TS and cell growth and in vivo against the L1210 tumour. Since methotrexate (MTX) resistance is an important problem in cancer therapy, the compounds of the present invention were also investigated with this in mind. The cross-resistance of the MTX resistant cell line L1210/R71, which is known to have elevated DHFR but normal MTX transport, was measured in culture, and the ability of the compounds of the invention to compete with labelled MTX or folic acid for transport into L1210 cells was also assessed.
(§4) Transport studies were conducted on compound CB 3717 as representative of the invention compounds by incubating cells in the presence of a labelled substance, removing aliquots, separating and washing the cells by centrifugation and counting the pellet.

The test system of data set [3] is L1210 cells. Description: Reversal of toxicity to L1210 cells in culture by thymidine. Format: cell-based, mouse. The protocol: as §2
Data set [4] is described as follows: Toxicity and body weight change in treated L1210 tumour-bearing mice. It is filed as in vivo, mice (female C57B1×DBA2 F1 hybrid). The protocol: as §1
The test system of data set [5] is L1210 cells. Description: Reversal of toxicity to L1210 cells in culture by folinic acid. The note with it: folinic acid up to 100 μM; FIG. 1: 20 μM CB 3717. Format: cell-based, mouse. The protocol:
as §2

The subject of data set [6] is transport of tritiated methotrexate into L1210 cells. As to the kind of experiment: Inhibition of transport of tritiated methotrexate into L1210 cells. Format: cell-based, mouse. The protocol: as §3, §4
In data set [7] the test system is L1210 cells. As to the kind of experiment: Growth inhibition of L1210 cells in suspension culture, 48 h count. It is filed as cell-based. The note with it: Mus musculus. The protocol: Cells were diluted to 10^5 /ml and additions (diluted in medium and sterilised in Millipore filtration) made prior to starting each incubation. Cell counts were performed after 24 and 48 hours using an improved Neubauer haemocytometer.

[8] abbreviates: methotrexate 3 mg/kg (optimal dose), daily×5, 10 animals.
The mark [9] stands for this setting: 8 mg/kg i.p., daily × 5, 5 animals.
[10] abbreviates: 16 mg/kg i.p., daily × 5, 5 animals, first 16 mg/kg line.
Setting [11] is: 16 mg/kg i.p., daily × 5, 5 animals, second 16 mg/kg line.
[12] abbreviates: 32 mg/kg i.p., daily × 5, 5 animals.
The mark [13] stands for this setting: 64 mg/kg i.p., daily × 5, 5 animals.
[14] abbreviates: 80 mg/kg i.p., single dose, 5 animals.
Setting [15] is: 128 mg/kg i.p., daily × 5, 5 animals.
Where [16] appears, read: 160 mg/kg i.p., single dose, 5 animals.

Turning to `CN(Cc1cnc2nc(N)nc(N)c2n1)c1ccc(C(=O)N[C@@H](CCC(=O)O)C(=O)O)cc1` [methotrexate, reference compound], in the data set on L1210 tumour (setting [8]), the “increase in median lifespan” value amounted to 71% and the long term survivors was 2/10. In [1], the metabolic degradation result is listed as “does not undergo significant metabolic degradation”. Further, the “resistance of L1210:R71 to MTX” value in the data set on L1210:R71 cells is “about 600 fold”.
With `C#CCN(Cc1ccc2nc(N)nc(O)c2c1)c1ccc(C(=O)N[C@@H](CCC(=O)O)C(=O)O)cc1` [CB 3717, N-(4-(N-((2-amino-4-hydroxy-6-quinazolinyl)methyl)prop-2-ynylamino)benzoyl)-L-glutamic acid], in data set [2], the “apparent transport by the pathway for folic acid” value was “also by that for folic acid”. In addition, the “effect on transport of tritiated folic acid” value in data set [2] (4 μM folic acid, FIG. 2) is on record as “inhibited; also recorded: dose-dependent reduction”. The “% Increase in mean survival time” value with L1210 tumour (setting [9]) is on record as 8%; in the data set with L1210 tumour (setting [10]), 13%; in the data set with L1210 tumour (setting [11]) it was 29%; in the data set with L1210 tumour (setting [12]), 62%; in the data set with L1210 tumour (setting [13]), 72%; in the data set with L1210 tumour (setting [14]), 14%. In addition, the “% Increase in mean survival time” value is listed as above 1200% with L1210 tumour (125 mg/kg i.p., daily × 5, 10 animals, see FIG. 3); above 1200% in the data set with L1210 tumour (setting [15]); 32% in the data set with L1210 tumour (setting [16]); above 1200% with L1210 tumour (200 mg/kg i.p., daily × 5, 10 animals, see FIG. 3). Also, the “Long term survivors (>200 days)” value in the data set with L1210 tumour (setting [9]), in the data set with L1210 tumour (setting [10]), in the data set on L1210 tumour (setting [11]), with L1210 tumour (setting [12]), in the data set with L1210 tumour (setting [13]) and in the data set with L1210 tumour (setting [14]) was 0 throughout. Further, the “Long term survivors (>200 days)” value was found to be 9 in the data set with L1210 tumour (125 mg/kg i.p., daily × 5, 10 animals); 4 in the data set on L1210 tumour (setting [15]); 0 in the data set on L1210 tumour (setting [16]); 9 with L1210 tumour (200 mg/kg i.p., daily × 5, 10 animals). In addition, the “long term survivors (>120 days)” value in the data set with L1210 tumour (125 mg/kg, 5 daily doses) is 9 out of 10; with L1210 tumour (200 mg/kg, 5 daily doses) it was 9 out of 10. Besides, the “increase in mean survival time with 5 daily dose schedule” value in the data set with L1210 tumour (5 daily doses, see Table 3) was “dose related”. Besides, in the data set on L1210 tumour (CB 3717 125 and 200 mg/kg vs MTX 3 mg/kg, daily×5), the “difference in survival of CB 3717 and MTX treated animals, p (log rank test)” value is below 0.001. Also, the “Reversal by thymidine (in culture)” value in the data set with L1210 cells [3] (second results table, L1210) was “yes”. In the data set on L1210 cells [3] (thymidine 10 μM, FIG. 1: 20 μM CB 3717), the “reversal of toxicity by co-incubation with thymidine” value is listed as “Reversal of the toxicity; also recorded: virtually complete protection”. Further, the “body weight change / signs of toxicity” value in data set [4] (5 daily doses, 125 and 200 mg/kg/day, groups of 10 mice, FIG. 4) was “did not lose a significant amount of weight or show other signs of toxicity”. In data set [4] (single doses up to 160 mg/Kg i.p.), the “toxicity of single doses” value was “not toxic”. Besides, the “reversal of toxicity by folinic acid” value with L1210 cells [5] is “only partial reversal; also recorded: does not reverse the effect”. Further, in [6], the “apparent transport by the pathway used for methotrexate” value is reported as “can apparently be transported by the pathway used for methotrexate”. Also, the “effect on transport of tritiated methotrexate” value in data set [6] (4 μM MTX, FIG. 2) is recorded as “inhibited; also recorded: dose-dependent reduction”. Moreover, the IC50 with L1210 cells [7] (L1210, 48 h, second results table, read-out: ID50 L1210 (Tissue culture)) is 6.5 to 8.5 µM; in the data set with L1210 cells [7] (L1210, Table 2, 48 hour count reduced to 50% of control, read-out: ID50 L1210), 5 µM.
